Assay [1] deals with T1, Oxysterols receptor LXR-alpha (Homo sapiens) (UniProt Q13133).
T1 sequence (whole entry): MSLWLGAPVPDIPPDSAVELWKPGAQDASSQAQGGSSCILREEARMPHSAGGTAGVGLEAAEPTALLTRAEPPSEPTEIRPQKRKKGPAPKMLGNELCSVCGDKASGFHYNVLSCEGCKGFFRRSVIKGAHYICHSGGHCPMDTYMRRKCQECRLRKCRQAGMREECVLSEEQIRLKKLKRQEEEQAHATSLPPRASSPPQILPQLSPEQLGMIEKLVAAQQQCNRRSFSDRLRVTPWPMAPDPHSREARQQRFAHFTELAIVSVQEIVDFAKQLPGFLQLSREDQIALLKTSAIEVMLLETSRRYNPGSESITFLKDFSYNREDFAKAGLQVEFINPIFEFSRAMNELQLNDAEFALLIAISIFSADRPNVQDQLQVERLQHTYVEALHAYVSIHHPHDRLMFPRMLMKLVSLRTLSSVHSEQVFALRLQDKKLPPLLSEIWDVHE
The experiment in a line: Binding affinity to human LXRalpha at 30 uM by competitive ligand binding based TR-FRET assay. On the technique in general: TR-FRET usually uses a lanthanide donor and a delayed reading to cut background.

The target of assay [2] is T2, PPAR alpha/gamma (Homo sapiens) (UniProt P37231+Q07869). The experiment in a line: Agonist activity at PPARalpha/PPARgamma in human NHEK cells assessed as upregulation of HMGCR mRNA at 10 uM incubated for 3 days by qRT-PCR analysis. The class given is cell-based. The note with it: time 3.0 day. (In general: In qPCR the cycle at which signal appears reflects the starting amount.)

In assay [3] the test system is Adipose tissue derived mesenchymal stem cell. The experiment in a line: Induction of adipogenesis in human AT-MSC cells assessed as increase in lipid droplet at 30 uM in IDX medium incubated for 5 days by Oil Red O staining based inverted phase microscopy relative to IDX control. Type of assay: functional. To be noted: time 5.0 day.
A short description of assay [4]: Induction of adipogenesis in human AT-MSC assessed as adiponectin secretion at 30 uM in IDX medium incubated for 5 days by ELISA (reference value: 100 +/- 15 pg/ml). Type of assay: functional, Adipose tissue derived mesenchymal stem cell. To be noted: time 5 day.
Assay [5] deals with NHEK. Briefly: Inhibition of UVB-induced PGE2 level in human NHEK cells at 10 uM incubated for 24 hrs by ELISA. The class given is functional, cell-based. On the technique in general: An ELISA detects its analyte on a solid surface through an enzyme-linked reagent.
The target of assay [6] is T3, Peroxisome proliferator-activated receptor alpha (Homo sapiens, UniProt Q07869).
T3 sequence (Q07869 whole entry): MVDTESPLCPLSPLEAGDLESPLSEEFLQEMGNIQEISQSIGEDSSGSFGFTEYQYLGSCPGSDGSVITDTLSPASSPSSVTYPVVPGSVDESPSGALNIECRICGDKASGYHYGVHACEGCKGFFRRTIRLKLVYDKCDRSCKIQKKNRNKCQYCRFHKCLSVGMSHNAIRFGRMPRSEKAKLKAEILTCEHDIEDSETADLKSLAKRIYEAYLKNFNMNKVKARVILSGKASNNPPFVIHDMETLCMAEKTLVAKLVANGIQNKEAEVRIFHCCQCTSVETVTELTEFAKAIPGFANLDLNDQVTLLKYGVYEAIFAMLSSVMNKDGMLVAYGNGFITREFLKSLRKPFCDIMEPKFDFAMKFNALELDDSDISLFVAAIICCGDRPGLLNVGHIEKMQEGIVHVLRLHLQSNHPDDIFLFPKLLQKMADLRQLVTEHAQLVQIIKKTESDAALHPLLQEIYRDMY
Briefly: (§1) Binding affinity to human recombinant PPARalpha by Cheng-Prusoff equation based competitive binding TR-FRET assay.

Assay [7] has as its target T4, Peroxisome proliferator-activated receptor alpha (Homo sapiens) (UniProt Q07869).
T4 sequence (whole entry): T3 sequence (Q07869 whole entry)
Described as §1. To be noted: filed as agonist.

Assay [8] deals with T5, Peroxisome proliferator-activated receptor gamma (Homo sapiens, UniProt P37231).
T5 sequence (P37231 whole entry): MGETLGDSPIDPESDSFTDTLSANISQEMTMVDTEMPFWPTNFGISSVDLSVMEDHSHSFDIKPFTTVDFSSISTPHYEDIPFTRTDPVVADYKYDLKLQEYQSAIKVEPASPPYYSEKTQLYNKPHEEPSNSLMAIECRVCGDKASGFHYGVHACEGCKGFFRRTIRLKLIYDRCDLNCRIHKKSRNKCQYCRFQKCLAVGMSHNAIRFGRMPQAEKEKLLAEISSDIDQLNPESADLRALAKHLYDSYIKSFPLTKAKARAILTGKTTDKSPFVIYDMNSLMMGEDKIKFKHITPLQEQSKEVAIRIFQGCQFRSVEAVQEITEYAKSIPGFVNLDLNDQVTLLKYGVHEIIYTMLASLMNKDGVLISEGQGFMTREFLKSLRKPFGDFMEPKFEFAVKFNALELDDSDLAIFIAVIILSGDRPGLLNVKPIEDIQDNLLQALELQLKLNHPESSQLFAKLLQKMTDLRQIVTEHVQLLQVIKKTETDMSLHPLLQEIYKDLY
Briefly: (§2) Binding affinity to human recombinant PPARgamma by Cheng-Prusoff equation based competitive binding TR-FRET assay.

Assay [9] deals with T6, Peroxisome proliferator-activated receptor gamma (Homo sapiens) (UniProt P37231).
T6 sequence (whole entry): T5 sequence (P37231 whole entry)
The description is as §2. The note with it: filed as agonist.

Assay [10] concerns the target T2, PPAR alpha/gamma (Homo sapiens). Briefly: Agonist activity at PPARalpha/PPARgamma in human AT-MSC cells assessed as upregulation of FASN mRNA at 10 uM incubated for 3 days by qRT-PCR analysis. To be noted: Adipose tissue derived mesenchymal stem cell, filed as agonist, time 3.0 day. Type of assay: cell-based.
Assay [11] can be described thus: Induction of adipogenesis in human AT-MSC assessed as adiponectin secretion in IDX medium incubated for 5 days by ELISA. The class given is functional. The note with it: adipose tissue derived mesenchymal stem cell.
The target in assay [12] is T2, PPAR alpha/gamma (Homo sapiens). Briefly: Agonist activity at PPARalpha/PPARgamma in human NHEK cells assessed as upregulation of FASN mRNA at 10 uM incubated for 3 days by qRT-PCR analysis. The class given is cell-based. The note with it: time 3.0 day.
Assay [13] has the same target. The experiment in a line: Agonist activity at PPARalpha/PPARgamma in human NHEK cells assessed as upregulation of ACACB mRNA at 10 uM incubated for 3 days by qRT-PCR analysis. The class given is cell-based. The note with it: time 3.0 day.
For assay [14] the target is unchanged. Briefly: Agonist activity at PPARalpha/PPARgamma in human AT-MSC cells assessed as upregulation of FABP4 mRNA at 10 uM incubated for 3 days by qRT-PCR analysis. The class given is cell-based. To be noted: Adipose tissue derived mesenchymal stem cell, filed as agonist, time 3.0 day.
For assay [15] the target is unchanged. The experiment in a line: Agonist activity at PPARalpha/PPARgamma in human AT-MSC cells assessed as upregulation of SCD1 mRNA at 10 uM incubated for 3 days by qRT-PCR analysis. The class given is cell-based. To be noted: Adipose tissue derived mesenchymal stem cell, filed as agonist, time 3.0 day.
In assay [16] the test system is NHEK. Briefly: Inhibition of UVB-induced MMP1 level in human NHEK cells at 10 uM incubated for 24 hrs by ELISA. The class given is functional, cell-based.
Assay [17] deals with T2, PPAR alpha/gamma (Homo sapiens). The experiment in a line: Agonist activity at PPARalpha/PPARgamma in human NHEK cells assessed as upregulation of HMGCS2 mRNA at 10 uM incubated for 3 days by qRT-PCR analysis. The class given is cell-based. The note with it: filed as agonist, time 3.0 day.

By Ki is commonly meant a measure of affinity in units of concentration, obtained from inhibition or displacement. Broadly, the EC50 is the concentration at which the effect is half-maximal.

The source made the active and inactive calls. The calls are words filed in the database; no cut-off is given here.

With `COc1ccc(OC)c(/C=C/C(=O)OCc2cc(=O)c(O)co2)c1`, the result in assay [1], in assay [2], in assay [12] and in assay [13] was inactive. The result in assay [3], in [10], in [14], in [15] and in assay [17] was Active. The results for the Activity in [4], in [7] and in assay [9] were 383 pg/mL, “Dose-dependent effect” and “Dose-dependent effect”, respectively. The inhibition result with NHEK [5] and in the assay on NHEK [16] was “Active” in each case. For the same compound, the Ki was 9.5 µM in assay [6] and 7 µM in assay [8]. In addition, the EC50 in assay [11] was determined as 7.6 µM.
